Experimental data: PMC5642494 (Oncotarget, 2017)
Read-outs that look alike come from different tables or passages of the source.

System: MCF7 cells
Assay: TCA metabolite profiling by LC/MS in MCF7
Format: cell-based, human
Settings: for EC50: Homo sapiens, MCF7, MCF7, single experiment, read-out: EC50 α-ketoglutarate; for Aspartate level / Citrate level / Fumarate level / Glutamate level / Isocitrate level / Lactate level / Malate level / Pyruvate level / Succinate level / α-ketoglutarate level: MCF7, 3 DT, normalized to DMSO = 1, n = 3
Experimental: MCF7 cells were plated at 20,000 cells/well in 24-well plate; approximately 14–24 hours after seeding, cells were treated with DMSO (vehicle) or the indicated compounds diluted in DMSO. Cells were incubated for three different incubation times: 48 hours (1 DT), 96 hours (2 DT), and […] (3 DT). After treatment, cells were harvested and the collected pellet was stored at -80°C. For additional details see Supplemental Methods and Supplementary Table 1. […]
SA-β-gal Cell samples were lysed after treatment with expression was determined using the Senescence Cells 100 µL lysis buffer and transferred to a 96-well plate.
Histochemical Staining Kit (Sigma, CS0030) following 30 µL of each sample were transferred into deep well the vendor ’s manual. Images were taken at 100x by bright plates using TECAN-EVO Workstation. Samples were field microscopy (Leica DMiL). treated for derivatization of the metabolites of interest and internal standards. For this, 50 µL of derivatization reagent
Proliferation studies after washouts (EdU Click- and 80 µL of internal standard (IS, SupplementaryTable iT®) 1), were added with multidrop, plates were vortexed for 5 mins and let sit for one hour at 4 °C. The IS used were the Cells were plated onto poly-D-lysine D or 13C-labeled commercial analogues of nine of the ten coated 96-well plates at a density of 2,000–6,000 metabolites, prepared at 25 µM in water (Supplementary viable cells per well, and treated with abemaciblib or Table 1). The derivatization reagents (from Sigma), palbociclib at 1µM following the cell treatment and 3-nitrophenylhydrazine (0.5 M) and the coupling buffer washout schedule shown on Supplementary Figure 1A. [N-(3-Dimethylaminopropyl)-N′-ethylcarbodiimide An EdU (5-ethynyl-2’-deoxyuridine) pulse was added hydrochloride (1M) were freshly prepared in 75:24:1 one hour prior to the end of study at a final concentration methanol/water/pyridine. of 10 µM as described in the kit protocol (Click-iT After derivatization, a liquid-liquid extraction step High Content Imaging EdU Incorporation kit (Life with ethyl acetate was carried out in two steps; the upper Technologies cat# C10351)). The cells were then fixed phase was transferred to a new deep-well plate with in the presence of 3.7% formaldehyde for 20 minutes at TECAN-EVO, and the joint extract was evaporated to 37°C, and permeabilized with 0.1% Triton-X 100 in PBS dryness with nitrogen, and reconstituted with 50% H2O/ for 10 minutes at 25°C, then washed twice with PBS. MetOH. A set of calibrants at 12 levels of the analytes They were blocked using 1% bovine serum albumin was derivatized in parallel following the same protocol.
(BSA) (Invitrogen #15260-037) for 1 hour at 25°C. EdU Samples were analyzed by LC─MS/MS under the detection was performed using the Click-iT High Content conditions described below. […]
Mass Spectrometer (qQq) with JetStream Electrospray
Objects were identified using an algorithm to Ionization (ESI) Source, coupled to a LC1290 Infinity detect nuclear staining with Hoechst 33342 dye. The High-Performance Liquid Chromatograph. The software relative levels and sub-cellular localization of EdU were for data collection and treatment was Agilent Masshunter determined through the respective intensities and locations Workstation. Mobile phases for chromatography were: of Alexa-488 fluorescence. mobile phase A: formic acid (5 mM) and ammonium formate (10 mM) in water; mobile phase B: acetonitrile.
Assessment of hypermethylation of histone H3 at 50% Acetonitrile/water were used to clean the lysine 9 (H3K9me3) injection needle after each injection. A reverse-phase chromatographic column (XBridge BEH C18 3.5 µm, MCF7 and EFM-19 cells were plated in 96-well 2.1 × 50 mm) from […] plates and treated at 20 µM (or a 3-fold dilution series) was used as stationary phase. Chromatographic separation […]
Tecan Genesis RSP100 liquid-handling system was used mobile phase A in 6 min; then to 5% in 0.1 min, maintained […]

EC50 (1 DT): 370 nM | EC50 (2 DT): 280 nM | EC50 (3DT): 730 nM
SMILES: CCN1CCN(Cc2ccc(Nc3ncc(F)c(-c4cc(F)c5nc(C)n(C(C)C)c5c4)n3)nc2)CC1 [abemaciclib, Abemaciclib]
Aspartate level (0.5 µM): 0.72 ± 0.10 | Citrate level (0.5 µM): 1.20 ± 0.27 | Fumarate level (0.5 µM): 0.12 ± 0.02 | Glutamate level (0.5 µM): 0.71 ± 0.06 | Isocitrate level (0.5 µM): 1.90 ± 0.65 | Lactate level (0.5 µM): 0.30 ± 0.02 | Malate level (0.5 µM): 0.22 ± 0.01 | Pyruvate level (0.5 µM): 1.22 ± 0.64 | Succinate level (0.5 µM): 0.35 ± 0.08 | α-ketoglutarate level (0.5 µM): 0.13 ± 0.03 | Aspartate level (2 µM): 0.47 ± 0.13 | Citrate level (2 µM): 1.07 ± 0.3 | Fumarate level (2 µM): 0.12 ± 0.07 | Glutamate level (2 µM): 1.10 ± 0.38 | Isocitrate level (2 µM): 0.81 ± 0.52 | Lactate level (2 µM): 0.38 ± 0.15 | Malate level (2 µM): 0.09 ± 0.03 | Pyruvate level (2 µM): 3.59 ± 1.65 | Succinate level (2 µM): 0.65 ± 0.23 | α-ketoglutarate level (2 µM): 0.08 ± 0.02
